From patent US6784167B2, “17-beta-hydroxysteroid dehydrogenase-II inhibitors” (Bayer Pharmaceuticals Corporation, priority 2000, dated 2004)
Like-named read-outs stand apart in the source and are kept apart here.

Columns and labels:
[1] = molecular target: T1, 17-Beta HSD II Enzyme (Homo sapiens, UniProt P37059); experiment: Primary assay: inhibition of 17-Beta HSD II enzyme (estradiol/NAD, PMS:MTS colorimetric readout at 490 nm); type: biochemical; details: Table 7, baculovirus-expressed recombinant HSD II, estradiol substrate
T1 construct: made in house; host or cells: insect cells (baculovirus)
T1 sequence (P37059 1-387): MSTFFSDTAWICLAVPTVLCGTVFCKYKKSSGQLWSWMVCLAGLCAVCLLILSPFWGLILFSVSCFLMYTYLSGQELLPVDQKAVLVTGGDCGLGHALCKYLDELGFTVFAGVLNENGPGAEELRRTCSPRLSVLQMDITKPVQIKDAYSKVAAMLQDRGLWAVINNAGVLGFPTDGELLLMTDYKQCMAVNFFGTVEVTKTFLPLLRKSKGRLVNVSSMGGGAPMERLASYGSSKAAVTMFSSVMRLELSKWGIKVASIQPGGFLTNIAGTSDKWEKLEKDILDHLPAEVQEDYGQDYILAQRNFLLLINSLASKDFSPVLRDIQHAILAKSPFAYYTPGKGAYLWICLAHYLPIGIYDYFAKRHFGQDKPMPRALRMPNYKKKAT
Method: HSD II protein purification: The method for purification of baculovirus-expressed HSD II was standardized as follows. The insect cell pellet containing recombinant HSD II was lysed in 2.5 volumes of lysis buffer (40 mM Tris, pH 7.5, 1 mM EDTA, 2 mM DTT, 10 uM NAD) containing 500 uM AEBSF, 10 ug/ml aprotinin, 1 uM pepstatin A, and 100 uM leupeptin. The pellet was nutated for 30 min in this buffer. Subsequently, the pellet was homogenized with 15 strokes using a glass and teflon potter. The volume was doubled with a 2× sucrose/NaCl solution (500 mM sucrose, 300 mM NaCl in lysis buffer). After centrifugation at 10,000×g for 30 min, the supernatant was decanted and stored at −20° C. The pellet was resuspended in 2.5 volumes of lysis buffer containing 250 mM sucrose and 150 mM NaCl. Homogenization was repeated (15 strokes) and the suspension was centrifuged again and the decanted supernatant was stored at −20° C. The pellet was resuspended with 2 times the original pellet volume in lysis buffer containing 150 mM NaCl and 1% Triton X-100. The suspension was nutated for 20 min and then homogenized with 5 strokes. Subsequently, the suspension was centrifuged at 30,000×g for 1 h and supernatant was decanted and poured into a chromatographic column. Sephadex G-25 (fine) was added in small amounts, allowing approximately 15 min after each addition for complete swelling. Sephadex addition was continued until all liquid was absorbed. The protein was eluted with 1 void volume of lysis buffer and eluate monitored at 280 nm optical density. The chromatographic procedure was repeated and an equal volume of glycerol was added to the final eluate.
Primary assay: After titration, the HSD II prep, generated with the standard protocol, was diluted to the appropriate concentration (generally 1/15 dilution). 55 μl of assay buffer (50 mM Hepes, pH 8.0) was added to all wells of a 96 well plate. 5 μl of 5% DMSO were added to wells A1-C1, A2-C2, F1-H1, and F2-H2. A 10 μl aliquot of a 10 mM solution in DMSO of each compound was diluted in 190 μl of assay buffer. The plate with these compound dilutions was then mixed for 15 min on a shaker and a 5 μl aliquot from each well was added to the […]. This was followed by 10 μl of HSD II enzyme ( 1/15 dilution)/estradiol mix in assay buffer containing 1% Triton X-100. The estradiol […] from a 20 mM estradiol DMSO stock solution, which was diluted 1/20 (50 μl/ml) in 50 mM Hepes buffer containing 1% Triton X-100. All wells, except F1-H1 and F2-H2, also received 10 μl of 25 mg/ml NAD (SIGMA) in 100 mM Hepes, pH 9. The blank wells F1-H1 and F2-H2 received 10 μl of NAD buffer. 20 μl of PMS:MTS solution (100 μl PMS into 1800 μl MTS, Promega) was added to all wells. The plate was covered with aluminum foil and incubated at room temperature for 1.5 h. The plate was analyzed at 490 nm on a Hewlett Pachard 8453 spectrophotometer and results were calculated.

[2] = read-out: IC50 values ≧2 μM and <10 μM

Row | Compound | melting point | IC50 [1, 2] [µM] | IC50 [1] [µM]
1 | CN1C(=O)CC(c2ccccc2)C1C(O)c1ccc(-c2ccc(C(F)(F)F)cc2)s1 (centres unmarked) [Example 32] | 206 °C | 2 to 10 | 
2 | CN1C(=O)CC(c2ccccc2)C1C(O)c1ccc(-c2cccnc2)s1 (racemic) [Example 78] | 210 °C |  | < 0.5
3 | CN1C(=O)CC(c2ccccc2)C1C(O)c1ccc(Sc2ccccc2)s1 (centres unmarked) [Example 66] | 172 °C |  | < 0.5
4 | CN1C(=O)C[C@H](c2ccccc2)[C@@H]1[C@H](O)c1ccc(-c2cccc(NC(=O)Nc3ccc(F)cc3)c2)s1 (relative stereo) [Example 25, (±)-(4R*,5R*)-5-{(1S*)[5-(3-{[(4-fluorophenyl)amino]carbonylamino}phenyl)(2-thienyl)]hydroxymethyl}-1-methyl-4-phenylpyrrolidin-2-one] |  | 2 to 10 | 
5 | CN1C(=O)C[C@H](c2ccccc2F)[C@@H]1[C@H](O)c1ccc(-c2cccs2)s1 [Example 155] | 200 to 202 °C |  | < 0.5
6 | COc1ccccc1[C@H]1CC(=O)N(C)[C@H]1[C@H](O)c1ccc(S(=O)(=O)c2ccccc2)s1 (racemic) [Example 91] | 160 °C |  | < 0.5
7 | CN1C(=O)C[C@H](c2ccc(N)cc2)[C@@H]1[C@H](O)c1ccc(-c2ccccc2)s1 (relative stereo) [Example 17, (±)-(4R*,5R*)-5-[(1S*)-hydroxy(5-phenyl(2-thienyl))methyl]-4-(4-aminophenyl)-1-methylpyrrolidin-2-one] | 221 to 222 °C |  | < 0.5
8 | CN1C(=S)C[C@H](c2ccccc2)[C@@H]1[C@H](O)c1cccs1 (relative stereo) [Example 1, (±)-(4R*,5R*)-5-((1S*)-hydroxy-2-thienylmethyl)-1-methyl-4-phenylpyrrolidin-2-thione] |  | 2 to 10 | 
9 | CN1C(=O)CC(c2ccccc2)C1C(O)c1ccc(-c2ccc(Cl)cc2)s1 (centres unmarked) [Example 51] |  |  | < 0.5
10 | CN1C(=O)C[C@H](c2ccccc2F)[C@@H]1[C@H](O)c1ccc(S(=O)(=O)c2ccccc2)s1 (racemic) [Example 89] | 232 °C |  | < 0.5
11 | CN1C(=O)C[C@H](c2ccccc2)[C@@H]1[C@H](O)c1ccc(-c2cccnc2)s1 (racemic) [Example 79] |  |  | < 0.5
12 | CN1C(=O)C[C@H](c2ccccc2F)[C@@H]1[C@H](O)c1cccs1 [Example 150] | 212 °C |  | < 0.5
13 | COc1cccc(-c2ccc(C(O)C3C(c4ccccc4)CC(=O)N3C)o2)c1 (centres unmarked) [Example 120] | 157 °C | 2 to 10 | 
14 | CN1C(=O)CC(c2ccccc2)C1C(O)c1ccc(-c2cccc(N)c2)s1 (centres unmarked) [Example 67] | 190 °C |  | < 0.5
15 | CCO[C@H](c1cccs1)[C@H]1[C@@H](c2ccccc2)CC(=O)N1C [Example 139] | 142 to 144 °C | 2 to 10 | 
16 | CN1C(=O)CC(c2ccccc2)C1C(O)c1ccc(Cl)c(Cl)c1 (centres unmarked) [Example 99] | 193 to 195 °C |  | < 0.5
17 | CN1C(=O)C[C@H](c2ccccc2)[C@@H]1[C@@H](O)c1ccc(-c2ccccc2)s1 [Example 11, (4R,5R)-5-[(1R)-hydroxy(5-phenyl(2-thienyl))methyl]-1-methyl-4-phenylpyrrolidin-2-one] |  |  | < 0.5
18 | CN1C(=O)C[C@H](c2ccccc2F)[C@@H]1[C@H](O)c1cccc(Cl)c1 [Example 154] | 184 to 185 °C |  | < 0.5
19 | CN1C(=O)CC(c2ccccc2)C1C(O)c1ccc(-c2ccccn2)s1 (centres unmarked) [Example 50] | 234 °C (dec.) |  | < 0.5

Row | Compound | melting point | IC50 [1, 2] [µM] | IC50 [1] [µM]
20 | CN1C(=O)C[C@H](c2ccccc2)[C@@H]1[C@H](O)c1ccc(-c2cccs2)s1 (racemic) [Example 29] | 152 °C |  | < 0.5
21 | CN1C(=O)CC(c2ccccc2)C1C(O)c1ccc(S(=O)(=O)c2ccc(F)cc2)s1 (centres unmarked) [Example 76] | 192 °C |  | < 0.5
22 | CN1C(=O)C[C@H](c2ccccc2)[C@@H]1[C@H](O)c1ccc(-c2cccnc2)s1 [Example 148] |  |  | < 0.5
23 | CN1C(=O)C[C@H](c2ccccc2F)[C@@H]1[C@H](O)c1ccc(-c2ccccc2)s1 (racemic) [Example 83] | 219 to 220 °C (dec.) |  | < 0.5
24 | CN1C(=O)C[C@H](c2ccccc2)[C@@H]1[C@H](O)c1ccc(S(=O)(=O)N2CCSCC2)s1 (racemic) [Example 35] | 197 to 199 °C |  | < 0.5
25 | CSC(c1cc2ccccc2[nH]1)[C@H]1[C@@H](c2ccccc2)CC(=O)N1C (relative stereo) [Example 10] |  |  | < 0.5
26 | CN(C)c1ccc([C@H]2CC(=O)N(C)[C@H]2[C@H](O)c2ccc(-c3ccccc3)s2)cc1 (relative stereo) [Example 19, (±)-(4R*,5R*)-5-[(1S*)-hydroxy(5-phenyl(2-thienyl))methyl]-1-methyl-4-[4-(dimethylamino)phenyl]pyrrolidin-2-one] |  | 2 to 10 | 
27 | CSc1ccc(-c2ccc([C@@H](O)[C@H]3[C@@H](c4ccccc4)CC(=O)N3C)s2)cc1 (racemic) [Example 69] | 187 °C | 2 to 10 | 
28 | CN1C(=O)CC(c2ccccc2)C1C(O)C#Cc1ccccc1F (centres unmarked) [Example 127] |  |  | < 0.5
29 | CN1C(=O)C[C@H](c2ccccc2)[C@@H]1[C@H](O)c1ccc(-c2ccc(F)cc2)s1 [Example 146] |  |  | < 0.5
30 | CN1C(=O)C[C@H](c2ccccc2)[C@@H]1COc1cccc(Cl)c1 (relative stereo) [Example 2, (±)-(4R*,5R*)-5-[(3-chlorophenoxy)methyl]-1-methyl-4-phenylpyrrolidin-2-one] |  | 2 to 10 | 
31 | CN1C(=O)C[C@H](c2ccc(CO)cc2)[C@@H]1[C@H](O)c1ccc(-c2ccccc2)s1 (relative stereo) [Example 21, (±)-(4R*,5R*)-5-[(1S*)hydroxy(5-phenyl(2-thienyl))methyl]-4-[4-(hydroxymethyl)phenyl]-1-methylpyrrolidin-2-one] |  | 2 to 10 | 
32 | CN1C(=O)C[C@H](c2ccc(O)cc2)[C@@H]1[C@H](O)c1ccc(-c2ccccc2)s1 (relative stereo) [Example 20, (±)-(4R*,5R*)-5-[(1S*)-hydroxy(5-phenyl(2-thienyl))methyl]-1-methyl-4-[4-hydroxyphenyl]pyrrolidin-2-one] |  |  | < 0.5
33 | CN1C(=O)C[C@H](c2ccccc2)[C@@H]1[C@H](O)c1ccc(-c2ccccn2)s1 [Example 147] |  |  | < 0.5
34 | CN1C(=O)C[C@H](c2ccccc2)[C@@H]1[C@H](O)C#Cc1ccccc1 (relative stereo) [Example 8, (±)-5-((1R*)-1-hydroxy-3-phenylprop-2-ynyl)(4R*,5R*)-1-methyl-4-phenylpyrrolidin-2-one] |  |  | < 0.5
35 | CN1C(=O)C[C@H](c2ccccc2)[C@@H]1[C@H](O)c1ccc(S(=O)(=O)c2ccccc2)s1 [Example 149] |  |  | < 0.5
36 | CN1C(=O)CC(c2ccccc2)C1C(O)c1ccc(-c2c(F)cccc2F)s1 (centres unmarked) [Example 30] |  |  | < 0.5
37 | CN1C(=O)C[C@H](c2ccc(-c3ccc(F)cc3)cc2)[C@@H]1[C@H](O)c1ccc(-c2ccccc2)s1 (relative stereo) [Example 22, (±)-(4R*,5R*)-5-[(1S*)hydroxy(5-phenyl(2-thienyl))-methyl]-4-[4-(4-fluorophenyl)phenyl]-1-methylpyrrolidin-2-one] |  | 2 to 10 | 
